Common to all, as to assay type: in vivo
Experiment [1] relates to Botrytis cinerea. The experiment in a line: Test A: tomato seedlings sprayed with test suspension, inoculated with Botrytis cinerea (gray mold), visual disease rating. An excerpt:
General protocol for preparing test suspensions for Tests A-E: the test compounds were first dissolved in acetone in an amount equal to 3% of the final volume and then suspended at the desired concentration (in ppm) in acetone and purified water (50/50 mix by volume) containing 250 ppm of the surfactant Trem® 014 (polyhydric alcohol esters). The resulting test suspensions were then used in Tests A-E. Samples were applied to plants at either a 10 ppm (**), 40 ppm, 50 ppm (*) or 200 ppm (#) test solution to the point of run-off on the test plants with the equivalent of a rate of 40 g ai/ha, 160 g ai/ha, 200 g ai/ha, or 800 g ai/ha, respectively.
The test suspension was sprayed to the point of run-off on tomato seedlings. The following day the seedlings were inoculated with a spore suspension of Botrytis cinerea (the causal agent of gray mold on many crops) and incubated in a saturated atmosphere at 20° C. for 48 h, and moved to a growth chamber at 27° C. for 2 days, after which time visual disease ratings were made.
Results for Tests A-E are given in Table A. In the Table, a rating of 100 indicates 100% disease control and a rating of 0 indicates no disease control (relative to the controls). A dash (-) indicates no test results.

For experiment [2], the system named is Stagonospora nodorum (also known as Septoria nodorum). The experiment in a line: Test B: wheat seedlings sprayed with test suspension, inoculated with Stagonospora nodorum (wheat glume blotch), visual disease rating. The gist of the method:
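Compounds in acetone/water 50/50 with 250 ppm Trem 014 were sprayed to run-off on wheat seedlings at 10, 40, 50 or 200 ppm (40–800 g ai/ha). Plants were inoculated next day, held 48 h saturated at 20 °C, then 6 days in a growth chamber at 20 °C. Visual rating 0–100% disease control relative to controls.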

Experiment [3] has as its system Septoria tritici. The experiment in a line: Test C: wheat seedlings sprayed with test suspension, inoculated with Septoria tritici (wheat leaf blotch), visual disease rating. In a few lines:
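Wheat seedlings sprayed to run-off with compound suspended in acetone/water with 250 ppm Trem 014, at 10, 40, 50 or 200 ppm (40–800 g ai/ha). Inoculated with Septoria tritici spores the next day, held 48 h saturated at 24 °C, then 21 days at 20 °C. Visual rating 0–100% disease control relative to controls.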

Experiment [4] deals with Puccinia recondite f. sp. tritici. Description: Test D: wheat seedlings sprayed with test suspension, inoculated with Puccinia recondite f. sp. tritici (wheat leaf rust), visual disease rating. In a few lines: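 Wheat seedlings were sprayed to run-off with compound suspended in 50/50 acetone–water containing 250 ppm Trem 014, at 10-200 ppm (40-800 g ai/ha). They were inoculated with rust spores the next day, then kept 24 h saturated at 20 °C and 6 days at 20 °C. Scores are visual % disease control versus untreated controls.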

Experiment [5] concerns Erysiphe graminis f. sp. tritici. Description: Test E: wheat seedlings sprayed with test suspension, inoculated with Erysiphe graminis f. sp. tritici (wheat powdery mildew), visual disease rating. The gist of the method: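 Wheat seedlings sprayed to run-off with compound suspension (acetone 3%, acetone/water 50/50 with 250 ppm Trem 014) at 10, 40, 50 or 200 ppm (40–800 g ai/ha), inoculated next day with spore dust. Incubated 7 or 8 days at 20° C, then rated visually as % disease control relative to controls (0–100).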

[6] abbreviates: Cmpd. No. marked '#' (other test rate; meaning of mark not shown).
[7] abbreviates: Cmpd. No. unmarked, 100 = 100% disease control, 0 = no control relative to controls.

The values that follow come from US10098350B2, “Fungicidal amides” (E. I. DU PONT DE NEMOURS AND COMPANY, priority 2013, dated 2018).

Regarding `Cn1cc(C(=O)N(Cc2cccc(-n3ccc(C(F)(F)F)n3)c2)C2CC2)c(C(F)F)n1` [Compound 9, N-cyclopropyl-3-(difluoromethyl)-1-methyl-N-[[3-[3-(trifluoromethyl)-1H-pyrazol-1-yl]phenyl]methyl]-1H-pyrazole-4-carboxamide], the “Test A rating (% disease control)” value was 39% in experiment [1] (setting [6]) and 9% in experiment [1] (setting [7]). Also, the “Test B rating (% disease control)” value in experiment [2] (setting [6]) is recorded as 99%; in experiment [2] (setting [7]), 93%. Also, the figures for the “Test C rating (% disease control)” value in experiment [3] (setting [6]) and in experiment [3] (setting [7]) were 100% and 96%, respectively. The “Test D rating (% disease control)” value in experiment [4] (setting [6]) is 74%; in experiment [4] (setting [7]) it was 9%. Further, the “Test E rating (% disease control)” value is on record as 96% in experiment [5] (setting [6]) and 81% in experiment [5] (setting [7]).
In the case of `Cn1nc(C(F)F)c(C(=O)N(Cc2ccc(-n3ccc(C(F)(F)F)n3)cc2Cl)C2CC2)c1F` [Compound 12, N-[[2-chloro-4-[3-(trifluoromethyl)-1H-pyrazol-1-yl]phenyl]methyl]-N-cyclopropyl-3-(difluoromethyl)-5-fluoro-1-methyl-1H-pyrazole-4-carboxamide], in experiment [1] (setting [7]), the “Test A rating (% disease control)” value worked out at 0%. Besides, the “Test B rating (% disease control)” value in experiment [2] (setting [7]) was 100%. For the same compound, in experiment [3] (setting [7]), the “Test C rating (% disease control)” value is 100%. Further, the “Test D rating (% disease control)” value in experiment [4] (setting [7]) came out at 99%. Also, the “Test E rating (% disease control)” value in experiment [5] (setting [7]) stood at 97%.
For the compound `Cc1ccc(-n2ccc(C(F)(F)F)n2)cc1CN(C(=O)c1cn(C)nc1C(F)F)C1CC1` [compound 28], the “Test A rating (% disease control)” value in experiment [1] (setting [7]) was found to be 11%. Moreover, the “Test B rating (% disease control)” value in experiment [2] (setting [7]) amounted to 99%. In addition, the “Test C rating (% disease control)” value in experiment [3] (setting [7]) was determined as 45%. Moreover, in experiment [4] (setting [7]), the “Test D rating (% disease control)” value was determined as 45%. The “Test E rating (% disease control)” value in experiment [5] (setting [7]) is given as 59%.
`Cc1cc(-n2ccc(C(F)(F)F)n2)cc(CN(C(=O)c2cn(C)nc2C(F)F)C2CC2)c1F` [compound 29]: in experiment [1] (setting [7]), the “Test A rating (% disease control)” value was 0%. For the same compound, the “Test B rating (% disease control)” value in experiment [2] (setting [7]) is reported as 94%. The “Test C rating (% disease control)” value in experiment [3] (setting [7]) is on record as 83%. The “Test D rating (% disease control)” value in experiment [4] (setting [7]) was found to be 68%. Also, in experiment [5] (setting [7]), the “Test E rating (% disease control)” value is 48%.
In the same order, the values of `Cn1nc(C(F)F)c(C(=O)N(Cc2ccc(-n3cc(Br)cn3)cc2Cl)C2CC2)c1F` [compound 34] are 23%, 100%, 94%, 100% and 95%.
On the same counts, the results for `CC(c1ccc(-n2ccc(C(F)(F)F)n2)cc1Cl)N(C(=O)c1cn(C)nc1C(F)F)C1CC1` (stereo not drawn) [compound 19] are 0%, 99%, 75%, 85% and 64%.
As to `CC(c1ccc(-n2ccc(C(F)(F)F)n2)nc1)N(C(=O)c1cn(C)nc1C(F)F)C1CC1` (stereo not drawn) [Compound 1, N-cyclopropyl-3-(difluoromethyl)-1-methyl-N-[1-[6-[3-(trifluoromethyl)-1H-pyrazol-1-yl]-3-pyridinyl]ethyl]-1H-pyrazole-4-carboxamide], the “Test A rating (% disease control)” value in experiment [1] (setting [6]) and in experiment [1] (setting [7]) was 0% in each case. Further, the “Test B rating (% disease control)” value is listed as 69% in experiment [2] (setting [6]) and 0% in experiment [2] (setting [7]). For the same compound, the “Test C rating (% disease control)” value was determined as 93% in experiment [3] (setting [6]) and 86% in experiment [3] (setting [7]). For the same compound, the “Test D rating (% disease control)” value in experiment [4] (setting [6]) is reported as 28%; in experiment [4] (setting [7]), 0%. In addition, the “Test E rating (% disease control)” value was determined as 98% in experiment [5] (setting [6]) and 96% in experiment [5] (setting [7]).
On to `Cn1nc(C(F)F)c(C(=O)N(Cc2ccc(-n3cc(Br)cn3)cc2Cl)C2CC2)c1Cl` [compound 31], for which the “Test A rating (% disease control)” value in experiment [1] (setting [7]) is listed as 0%. Moreover, in experiment [2] (setting [7]), the “Test B rating (% disease control)” value is on record as 0%. Besides, in experiment [3] (setting [7]), the “Test C rating (% disease control)” value turned out to be 42%. The “Test D rating (% disease control)” value in experiment [4] (setting [7]) amounted to 98%. Besides, the “Test E rating (% disease control)” value in experiment [5] (setting [7]) was 0%.
Turning to `Cn1cc(C(=O)N(Cc2cc(-n3ccc(C(F)(F)F)n3)ccc2Cl)C2CC2)c(C(F)F)n1` [compound 30], the “Test A rating (% disease control)” value in experiment [1] (setting [7]) is reported as 0%. For the same compound, in experiment [2] (setting [7]), the “Test B rating (% disease control)” value came out at 60%. Also, the “Test C rating (% disease control)” value in experiment [3] (setting [7]) is 87%. For the same compound, in experiment [4] (setting [7]), the “Test D rating (% disease control)” value amounted to 31%. The “Test E rating (% disease control)” value in experiment [5] (setting [7]) turned out to be 64%.
Take `Cn1cc(C(=O)N(Cc2ccc(-n3ccc(C(F)(F)F)n3)cc2Cl)C2CC2)c(C(F)F)n1` [compound 11]: the “Test A rating (% disease control)” value in experiment [1] (setting [7]) is reported as 0%. For the same compound, the “Test B rating (% disease control)” value in experiment [2] (setting [7]) came out at 89%. Moreover, the “Test C rating (% disease control)” value in experiment [3] (setting [7]) is reported as 100%. For the same compound, in experiment [4] (setting [7]), the “Test D rating (% disease control)” value came out at 54%. Besides, in experiment [5] (setting [7]), the “Test E rating (% disease control)” value was found to be 43%.
